These results are taken from US20120270929A1, “MODULATION OF TTC39 EXPRESSION TO INCREASE HDL” (ISIS Pharmaceuticals, Inc., priority 2009, published 2012).

Oligonucleotides are written 5' to 3', each unit as a sugar letter and its base; * is a phosphorothioate linkage, no mark a phosphodiester; rarer units and linkages stand in square brackets, end groups in braces. Plain capitals give the bases only. e = 2'-O-(2-methoxyethyl) (MOE); [5mC] = 5-methylcytosine; d = 2'-deoxy (DNA)

Data set [1] deals with murine TTC39B mRNA. The data set is described as follows: Dose-dependent antisense inhibition of murine TTC39B in mouse primary hepatocytes (Example 2). Format: cell-based. The conditions noted are these: cytofectin, ~16 h. As to the method:
Cells were plated at a density of 10,000 cells per well and transfected using cytofectin reagent with 25 nM, 50 nM, 100 nM, and 200 nM concentrations of antisense oligonucleotide, as specified in Table 3. After a treatment period of approximately 16 hours, RNA was isolated from the cells and TTC39B mRNA levels were measured by quantitative real-time PCR. Murine primer probe set mTtc39b_LTS00287 (forward sequence: […], incorporated herein as SEQ ID NO: 94; reverse sequence: […], incorporated herein as SEQ ID NO: 95; probe sequence: […], incorporated herein as SEQ ID NO: 96) was used to measure mRNA levels. TTC39B mRNA levels were adjusted according to total RNA content, as measured by RIBOGREEN®. Results are presented as percent inhibition of TTC39B, relative to untreated control cells.

The subject of data set [2] is murine TTC39B mRNA. As to the kind of experiment: Antisense inhibition of murine TTC39B in mouse primary hepatocytes, single dose. The conditions noted are these: 100 nM, cytofectin, ~24 h, vs untreated control. The data set is classed as cell-based. As to the method:
Antisense oligonucleotides targeted to a TTC39B nucleic acid were tested for their effects on TTC39B mRNA in vitro. Cultured mouse primary hepatocytes at a density of 10,000 cells per well were transfected using cytofectin reagent with 100 nM antisense oligonucleotide. After a treatment period of approximately 24 hours, RNA was isolated from the cells and TTC39B mRNA levels were measured by quantitative real-time PCR. TTC39B mRNA levels were adjusted according to total RNA content, as measured by RIBOGREEN®. Results are presented as percent inhibition of TTC39B, relative to untreated control cells.
The chimeric antisense oligonucleotides in Tables 1 and 2 were designed as 5-10-5 MOE gapmers. The gapmers are 20 nucleotides in length, wherein the central gap segment is comprised of 10 2′-deoxynucleotides and is flanked on both sides (in the 5′ and 3′ directions) by wings comprising 5 nucleotides each. Each nucleotide in the 5′ wing segment and each nucleotide in the 3′ wing segment has a 2′-MOE modification. The internucleoside linkages throughout each gapmer are phosphorothioate (P═S) linkages. All cytosine residues throughout each gapmer are 5-methylcytosines. “Target start site” indicates the 5′-most nucleotide to which the gapmer is targeted. “Target stop site” indicates the 3′-most nucleotide to which the gapmer is targeted. Each gapmer listed in Table 1 is targeted to SEQ ID NO: 6 (GENBANK Accession No. NM_027238.2) and each gapmer listed in Table 2 is targeted to SEQ ID NO: 10 (the complement of GENBANK Accession No. NT—039260.7 truncated at nucleotides 22491001 to 22601000), SEQ ID NO: 11 (GENBANK Accession No. BY244623.1), SEQ ID NO: 12 (GENBANK Accession No. BY260936), SEQ ID NO: 13 (GENBANK Accession No. BM935568.1) or SEQ ID NO: 14 (GENBANK Accession No. BY728780.1).

[3] abbreviates: gapmers targeted to SEQ ID NO: 6.

Regarding “ATGCCATTCTGGATGTCCTG (antisense eA*eT*eG*e[5mC]*e[5mC]*dA*dT*dT*d[5mC]*dT*dG*dG*dA*dT*dG*eT*e[5mC]*e[5mC]*eT*eG) [ISIS 447106]”, the “percent inhibition of TTC39B mRNA” value in data set [1] (25 nM) turned out to be 41%; in data set [1] (50 nM), 55%; in data set [1] (100 nM), 78%; in data set [1] (200 nM) it was 87%. Moreover, in data set [2] (setting [3]), the “% inhibition of murine TTC39B mRNA” value turned out to be 70%.
Turning to “GAGATCAGTTTCTGATGAAA (antisense eG*eA*eG*eA*eT*d[5mC]*dA*dG*dT*dT*dT*d[5mC]*dT*dG*dA*eT*eG*eA*eA*eA) [ISIS 447169]”, the “percent inhibition of TTC39B mRNA” value is recorded as 17% in data set [1] (25 nM), 43% in data set [1] (50 nM), 65% in data set [1] (100 nM) and 81% in data set [1] (200 nM). In addition, the “% inhibition of murine TTC39B mRNA” value in data set [2] (gapmers targeted to SEQ ID NO: 10-14) is 67%.
With “GAGTCCACCTTTGATGAAGT (antisense eG*eA*eG*eT*e[5mC]*d[5mC]*dA*d[5mC]*d[5mC]*dT*dT*dT*dG*dA*dT*eG*eA*eA*eG*eT) [ISIS 447110]”, the “percent inhibition of TTC39B mRNA” value is listed as 39% in data set [1] (25 nM), 52% in data set [1] (50 nM), 77% in data set [1] (100 nM) and 87% in data set [1] (200 nM). In data set [2] (setting [3]), the “% inhibition of murine TTC39B mRNA” value is recorded as 69%.
For “GCCAATCTAAAAATGGCTCA (antisense eG*e[5mC]*e[5mC]*eA*eA*dT*d[5mC]*dT*dA*dA*dA*dA*dA*dT*dG*eG*e[5mC]*eT*e[5mC]*eA) [ISIS 447135]” the same measures were 35%, 52%, 66%, 76% and 67%.
For the sequence “GCTCAGCTTGCAAGGGCCGC (antisense eG*e[5mC]*eT*e[5mC]*eA*dG*d[5mC]*dT*dT*dG*d[5mC]*dA*dA*dG*dG*eG*e[5mC]*e[5mC]*eG*e[5mC]) [ISIS 447127]”, the “percent inhibition of TTC39B mRNA” value came to 40% in data set [1] (25 nM), 62% in data set [1] (50 nM), 84% in data set [1] (100 nM) and 90% in data set [1] (200 nM). The “% inhibition of murine TTC39B mRNA” value in data set [2] (setting [3]) is listed as 65%.
For “GGACTGCCTGCCATGGGTGC (antisense eG*eG*eA*e[5mC]*eT*dG*d[5mC]*d[5mC]*dT*dG*d[5mC]*d[5mC]*dA*dT*dG*eG*eG*eT*eG*e[5mC]) [ISIS 447146]” the same measures were 44%, 55%, 78%, 89% and 69%.
With “GGAGGTCCCCTGGCCACGGC (antisense eG*eG*eA*eG*eG*dT*d[5mC]*d[5mC]*d[5mC]*d[5mC]*dT*dG*dG*d[5mC]*d[5mC]*eA*e[5mC]*eG*eG*e[5mC]) [ISIS 447151]”, the “percent inhibition of TTC39B mRNA” value stood at 39% in data set [1] (25 nM), 56% in data set [1] (50 nM), 76% in data set [1] (100 nM) and 85% in data set [1] (200 nM). Moreover, the “% inhibition of murine TTC39B mRNA” value in data set [2] (setting [3]) is 65%.
For “GGCACTCTTTATATATTTGG (antisense eG*eG*e[5mC]*eA*e[5mC]*dT*d[5mC]*dT*dT*dT*dA*dT*dA*dT*dA*eT*eT*eT*eG*eG) [ISIS 447111]”, the “percent inhibition of TTC39B mRNA” value amounted to 30% in data set [1] (25 nM), 60% in data set [1] (50 nM), 77% in data set [1] (100 nM) and 87% in data set [1] (200 nM). For the same sequence, in data set [2] (setting [3]), the “% inhibition of murine TTC39B mRNA” value is given as 71%.
The corresponding values for “GGTGGAGTCTGGCCCTCAGC (antisense eG*eG*eT*eG*eG*dA*dG*dT*d[5mC]*dT*dG*dG*d[5mC]*d[5mC]*d[5mC]*eT*e[5mC]*eA*eG*e[5mC]) [ISIS 447142]” are 36%, 64%, 85%, 91% and 66%.
The corresponding values for “GTTGCCTTGGACCATTTACT (antisense eG*eT*eT*eG*e[5mC]*d[5mC]*dT*dT*dG*dG*dA*d[5mC]*d[5mC]*dA*dT*eT*eT*eA*e[5mC]*eT) [ISIS 447122]” are 35%, 61%, 78%, 88% and 67%.
For “TCGAAATGTTTCTTGAGCCT (antisense eT*e[5mC]*eG*eA*eA*dA*dT*dG*dT*dT*dT*d[5mC]*dT*dT*dG*eA*eG*e[5mC]*e[5mC]*eT) [ISIS 447119]” the same measures were 28%, 52%, 80%, 77% and 65%.
In the case of “TGAATGCTATTATTGGATCT (antisense eT*eG*eA*eA*eT*dG*d[5mC]*dT*dA*dT*dT*dA*dT*dT*dG*eG*eA*eT*e[5mC]*eT) [ISIS 447140]”, the “percent inhibition of TTC39B mRNA” value is 29% in data set [1] (25 nM), 55% in data set [1] (50 nM), 77% in data set [1] (100 nM) and 80% in data set [1] (200 nM). The “% inhibition of murine TTC39B mRNA” value in data set [2] (setting [3]) amounted to 66%.
